Results on seven molecules are retold here after patent US4708956A, “3-position halogenated cephalosporin analogs and pharmaceutical compositions” (Kyowa Hakko Kogyo Co., Ltd., priority 1986, dated 1987).

≈ marks a conversion by molar mass, not a printed value. Like-named read-outs stand apart in the source and are kept apart here. Where only a bound is given, the exact number is not on record here.

Experiment [1] relates to Gram-positive and Gram-negative bacteria. The following applies: J. Am. Chem. Soc., 96, 7584 (1974); J. Med. Chem., 20, 551 (1977); cited from earlier work.
Experiment [2] has as its system Staphylococcus epidermidis. As to the kind of experiment: Heart Infusion Agar Dilution Method, minimum inhibitory concentration. The class given is cell-based. The following applies: pH 7.2. The protocol:
(§1) The activity is determined by the Heart Infusion Agar Dilution Method (pH 7.2).
A general note: Agar dilution tests growth on a series of plates holding different concentrations.

Another experiment deals with Proteus rettgeri KY4289. Described as above. Format: cell-based. The conditions noted are these: Providencia rettgeri. As for the experimental part:
as §1

Another experiment has as its system Escherichia coli Juhl. Described as above. The class given is cell-based. The protocol: as §1
A further experiment deals with Serratia marcescens T-55. Described as above. The class given is cell-based. The protocol:
as §1

The test system of experiment [3] is Staphylococcus aureus Smith. The experiment is described as above. The class given is cell-based. The following applies: pH 7.2. As for the experimental part: as §1
The next experiment relates to Proteus mirabilis 1287. The experiment is described as above. The conditions noted are these: pH 7.2. Format: cell-based. As for the experimental part:
as §1

The next experiment deals with Pseudomonas putida F264. The experiment is described as above. Format: cell-based. As for the experimental part: as §1
A further experiment relates to Escherichia coli NIHJC-2. Described as above. Format: cell-based. As for the experimental part: as §1
Another experiment relates to Proteus vulgaris 6897. Described as above. The class given is cell-based. The conditions noted are these: pH 7.2. As for the experimental part: as §1
In experiment [4] the test system is Staphylococcus aureus 209-p. The experiment is described as above. Format: cell-based. As for the experimental part: as §1
In experiment [5] the test system is Klebsiella pneumoniae Y-60. The description is as above. The class given is cell-based. As for the experimental part:
as §1

Experiment [6] relates to Klebsiella pneumoniae 8045. Described as above. Format: cell-based. The following applies: pH 7.2. As for the experimental part:
as §1

Another experiment relates to Proteus morganii KY4298. Described as above. The class given is cell-based. The conditions noted are these: Morganella morganii. The protocol: as §1
Experiment [7] relates to Gram-positive and Gram-negative bacteria. As to the kind of experiment: antibacterial activity (general statements). Format: cell-based. The conditions noted are these: general or comparative statement.
Setting [8] is: Proteus rettgeri KY4289, Heart Infusion Agar Dilution Method, pH 7.2, read-out: Minimum Inhibitory Concentration.
The mark [9] stands for this setting: Escherichia coli Juhl, Heart Infusion Agar Dilution Method, pH 7.2, read-out: Minimum Inhibitory Concentration.
[10] abbreviates: T55, Serratia marcescens T-55, Heart Infusion Agar Dilution Method, pH 7.2, read-out: Minimum Inhibitory Concentration.
Setting [11] is: Pseudomonas putida F264, Heart Infusion Agar Dilution Method, pH 7.2, read-out: Minimum Inhibitory Concentration.
Setting [12] is: NIHJC2, Escherichia coli NIHJC-2, Heart Infusion Agar Dilution Method, pH 7.2, read-out: Minimum Inhibitory Concentration.
Setting [13] is: Staphylococcus aureus 209-p, Heart Infusion Agar Dilution Method, pH 7.2, read-out: Minimum Inhibitory Concentration.
The mark [14] stands for this setting: Y60, Klebsiella pneumoniae Y-60, Heart Infusion Agar Dilution Method, pH 7.2, read-out: Minimum Inhibitory Concentration.
Where [15] appears, read: Proteus morganii KY4298, Heart Infusion Agar Dilution Method, pH 7.2, read-out: Minimum Inhibitory Concentration.

Consider `CC(=O)OCC1=C(C(=O)O)N2C(=O)C(NC(=O)Cc3cccs3)C2CC1` (racemic) [(i)-1-carbacephalotin], for which the “antibacterial activity, in words (literature)” value in experiment [1] is given as “having antibacterial activity”.

Regarding `CO/N=C(\C(=O)N[C@@H]1C(=O)N2C(C(=O)O)=C(Cl)CC[C@H]12)c1ccco1` (relative stereo) [c, cis-7-[2-(2-furyl)-2-syn-methoxyiminoacetamido]-3-chloro-1-azabicyclo[4,2,0]oct-2-en-8-on-2-carboxylic acid], the MIC in experiment [2] is 25 µg/mL (≈ 68 µM); in the experiment with Proteus rettgeri KY4289 (setting [8]) it was 25 µg/mL (≈ 68 µM); with Escherichia coli Juhl (setting [9]), 50 µg/mL (≈ 136 µM); with Serratia marcescens T-55 (setting [10]) it was more than 100 µg/mL; in experiment [3], 12.5 µg/mL (≈ 34 µM); with Proteus mirabilis 1287, 12.5 µg/mL (≈ 34 µM). In addition, the MIC is more than 100 µg/mL with Pseudomonas putida F264 (setting [11]); 50 µg/mL (≈ 136 µM) in the experiment on Escherichia coli NIHJC-2 (setting [12]); 25 µg/mL (≈ 68 µM) in the experiment on Proteus vulgaris 6897; 6.25 µg/mL (≈ 17 µM) in [4] (setting [13]); 50 µg/mL (≈ 136 µM) in experiment [5] (setting [14]); 12.5 µg/mL (≈ 34 µM) in experiment [6]. Besides, in the experiment with Proteus morganii KY4298 (setting [15]), the MIC was more than 100 µg/mL.

Take `CO/N=C(\C(=O)N[C@@H]1C(=O)N2C(C(=O)O)=C(Cl)CC[C@H]12)c1csc(N)n1` (relative stereo) [d, (±)-cis-7-[2-(2-aminothiazole-4-yl)-2-syn-methoxyiminoacetamido]-3-chloro-1-azabicyclo[4,2,0]oct-2en-8-on-2-carboxylic acid]: the MIC in experiment [2] was 50 µg/mL (≈ 125 µM); in the experiment on Proteus rettgeri KY4289 (setting [8]), 0.1 µg/mL (≈ 0.25 µM); in the experiment on Escherichia coli Juhl (setting [9]) it was 0.4 µg/mL (≈ 1 µM); with Serratia marcescens T-55 (setting [10]), 1.56 µg/mL (≈ 3.9 µM); in [3], 50 µg/mL (≈ 125 µM); in the experiment on Proteus mirabilis 1287 it was 0.1 µg/mL (≈ 0.25 µM). For the same molecule, the MIC with Pseudomonas putida F264 (setting [11]) was 3.12 µg/mL (≈ 7.8 µM); with Escherichia coli NIHJC-2 (setting [12]), 0.78 µg/mL (≈ 1.95 µM); in the experiment on Proteus vulgaris 6897 it was 0.4 µg/mL (≈ 1 µM); in experiment [4] (setting [13]), 50 µg/mL (≈ 125 µM); in [5] (setting [14]), 0.78 µg/mL (≈ 1.95 µM); in experiment [6] it was not above 0.05 µg/mL. For the same molecule, the MIC with Proteus morganii KY4298 (setting [15]) was found to be 0.4 µg/mL (≈ 1 µM).

For the molecule `N[C@@H](C(=O)N[C@@H]1C(=O)N2C(C(=O)O)=C(Cl)CC[C@H]12)c1ccccc1` [a, (6R, 7S) 7-(R)-phenylglycinamido-3-chloro-1-azabicyclo[4,2,0]oct-2-en-8-on-2-carboxylic acid], the “antibacterial (antimicrobial) activity, in words” value in experiment [7] is recorded as “greater antimicrobial activity”. In addition, the MIC is 100 µg/mL (≈ 286 µM) with Proteus rettgeri KY4289 (setting [8]), 100 µg/mL (≈ 286 µM) in the experiment on Pseudomonas putida F264 (setting [11]), 100 µg/mL (≈ 286 µM) with Proteus vulgaris 6897 and more than 100 µg/mL in the experiment with Proteus morganii KY4298 (setting [15]).

Consider `CCN1CCN(C(=O)N[C@@H](C(=O)N[C@@H]2C(=O)N3C(C(=O)O)=C(Cl)CC[C@H]23)c2ccccc2)C(=O)C1=O` [b, (6R, 7S) 7-[(R)-2-phenyl-2-(4-ethyl-2,3-dioxopiperadinylcarbonylamino)-acetamido]-3-chloro-1-azabicyclo[4,2,0]oct-2-en-8-on-2-carboxylic acid], for which the MIC in experiment [2] was found to be 1.56 µg/mL (≈ 3.01 µM); in the experiment with Proteus rettgeri KY4289 (setting [8]), 3.12 µg/mL (≈ 6.02 µM); in the experiment on Escherichia coli Juhl (setting [9]) it was 3.12 µg/mL (≈ 6.02 µM); in the experiment on Serratia marcescens T-55 (setting [10]), 3.12 µg/mL (≈ 6.02 µM); in experiment [3] it was 1.56 µg/mL (≈ 3.01 µM); in the experiment with Proteus mirabilis 1287, 1.56 µg/mL (≈ 3.01 µM). For the same molecule, the MIC was 25 µg/mL (≈ 48.3 µM) with Pseudomonas putida F264 (setting [11]); 3.12 µg/mL (≈ 6.02 µM) in the experiment on Escherichia coli NIHJC-2 (setting [12]); not above 0.05 µg/mL in the experiment with Proteus vulgaris 6897; 0.4 µg/mL (≈ 0.772 µM) in experiment [4] (setting [13]); 12.5 µg/mL (≈ 24.1 µM) in experiment [5] (setting [14]); 0.1 µg/mL (≈ 0.193 µM) in [6]. Besides, in the experiment on Proteus morganii KY4298 (setting [15]), the MIC turned out to be 3.12 µg/mL (≈ 6.02 µM).

In the case of `N[C@@H](C(=O)N[C@@H]1C(=O)N2C(C(=O)O)=C(Cl)CC[C@H]12)c1ccc(O)cc1` [e, (6R, 7S) 7-(R)-p-hydroxyphenyl-glycinamido-3-chloro-1-azabicyclo[4,2,0]oct-2-en-8-on-2-carboxylic acid], the MIC amounted to 1.56 µg/mL (≈ 4.26 µM) in [2]; 100 µg/mL (≈ 273 µM) with Proteus rettgeri KY4289 (setting [8]); 1.56 µg/mL (≈ 4.26 µM) in the experiment with Escherichia coli Juhl (setting [9]); 6.25 µg/mL (≈ 17.1 µM) in the experiment on Serratia marcescens T-55 (setting [10]); 1.56 µg/mL (≈ 4.26 µM) in experiment [3]; 3.12 µg/mL (≈ 8.53 µM) against Proteus mirabilis 1287. Moreover, the MIC was determined as 100 µg/mL (≈ 273 µM) with Pseudomonas putida F264 (setting [11]); 1.56 µg/mL (≈ 4.26 µM) in the experiment with Escherichia coli NIHJC-2 (setting [12]); 100 µg/mL (≈ 273 µM) in the experiment with Proteus vulgaris 6897; 0.4 µg/mL (≈ 1.09 µM) in [4] (setting [13]); 12.5 µg/mL (≈ 34.2 µM) in experiment [5] (setting [14]); 0.78 µg/mL (≈ 2.13 µM) in [6]. For the same molecule, the MIC in the experiment on Proteus morganii KY4298 (setting [15]) is more than 100 µg/mL.

Take `CC1=C(C(=O)O)N2C(=O)[C@@H](NC(=O)[C@H](N)c3ccccc3)[C@H]2SC1` [f, Cephalexin, reference compound]: the MIC with Proteus rettgeri KY4289 (KY4289, pH 7.2, read-out: Minimum Inhibitory Concentration) is more than 100 µg/mL; in the experiment on Escherichia coli Juhl (Escherichia coli, pH 7.2, read-out: Minimum Inhibitory Concentration) it was 12.5 µg/mL (≈ 36 µM); in the experiment with Serratia marcescens T-55 (Serratia marcescens, T55, pH 7.2, read-out: Minimum Inhibitory Concentration), 50 µg/mL (≈ 144 µM); in the experiment with Pseudomonas putida F264 (Pseudomonas putida, F264, pH 7.2, read-out: Minimum Inhibitory Concentration), more than 100 µg/mL; in the experiment with Escherichia coli NIHJC-2 (Escherichia coli, NIHJC2, pH 7.2, read-out: Minimum Inhibitory Concentration), 12.5 µg/mL (≈ 36 µM); in experiment [4] (Staphylococcus aureus, 209P, pH 7.2, read-out: Minimum Inhibitory Concentration), 0.2 µg/mL (≈ 0.576 µM). Further, the MIC was 50 µg/mL (≈ 144 µM) in experiment [5] (Klebsiella pneumoniae, Y60, pH 7.2, read-out: Minimum Inhibitory Concentration) and more than 100 µg/mL with Proteus morganii KY4298 (KY4298, pH 7.2, read-out: Minimum Inhibitory Concentration).
